Read-outs that look alike come from different tables or passages of the source. Values belong to the compound of their own block, whether it stands above or below them.
Experiments:
GRK5 [1] = target: T1, GRK5 (Bos taurus, UniProt P43249); experiment: In vitro phosphorylation assay (tubulin, 5 μM ATP), GRK5; assay type: biochemical, bovine; conditions: read-out: GRK5 log IC50 (converted)
T1 construct: when using full-length kinases as the receptor[37] instead of isolated kinase domains; made in house
T1 sequence (P43249 whole entry, the tested form may be a part): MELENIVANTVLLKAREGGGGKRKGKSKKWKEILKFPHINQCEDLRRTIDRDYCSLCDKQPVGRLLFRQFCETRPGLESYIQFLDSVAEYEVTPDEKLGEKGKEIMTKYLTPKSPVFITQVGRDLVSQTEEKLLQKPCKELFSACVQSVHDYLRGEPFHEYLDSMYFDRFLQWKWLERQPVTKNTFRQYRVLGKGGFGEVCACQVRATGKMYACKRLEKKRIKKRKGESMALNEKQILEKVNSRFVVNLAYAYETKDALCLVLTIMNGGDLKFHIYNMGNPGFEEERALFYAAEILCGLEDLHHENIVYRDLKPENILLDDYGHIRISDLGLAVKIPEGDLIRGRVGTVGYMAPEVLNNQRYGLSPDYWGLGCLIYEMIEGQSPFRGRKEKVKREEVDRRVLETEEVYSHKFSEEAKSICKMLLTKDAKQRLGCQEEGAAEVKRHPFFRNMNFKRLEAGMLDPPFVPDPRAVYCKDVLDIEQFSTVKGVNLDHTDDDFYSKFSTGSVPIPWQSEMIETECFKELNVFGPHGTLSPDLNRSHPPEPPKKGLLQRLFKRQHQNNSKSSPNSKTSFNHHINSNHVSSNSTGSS

GRK2 [2] = target: T2, GRK2 (Bos taurus, UniProt P21146, S670A); experiment: In vitro phosphorylation assay (tubulin, 5 μM ATP), GRK2; assay type: biochemical, bovine; conditions: read-out: GRK2 log IC50 (converted)
T2 construct: made in house
T2 sequence (P21146 1-689 S670A): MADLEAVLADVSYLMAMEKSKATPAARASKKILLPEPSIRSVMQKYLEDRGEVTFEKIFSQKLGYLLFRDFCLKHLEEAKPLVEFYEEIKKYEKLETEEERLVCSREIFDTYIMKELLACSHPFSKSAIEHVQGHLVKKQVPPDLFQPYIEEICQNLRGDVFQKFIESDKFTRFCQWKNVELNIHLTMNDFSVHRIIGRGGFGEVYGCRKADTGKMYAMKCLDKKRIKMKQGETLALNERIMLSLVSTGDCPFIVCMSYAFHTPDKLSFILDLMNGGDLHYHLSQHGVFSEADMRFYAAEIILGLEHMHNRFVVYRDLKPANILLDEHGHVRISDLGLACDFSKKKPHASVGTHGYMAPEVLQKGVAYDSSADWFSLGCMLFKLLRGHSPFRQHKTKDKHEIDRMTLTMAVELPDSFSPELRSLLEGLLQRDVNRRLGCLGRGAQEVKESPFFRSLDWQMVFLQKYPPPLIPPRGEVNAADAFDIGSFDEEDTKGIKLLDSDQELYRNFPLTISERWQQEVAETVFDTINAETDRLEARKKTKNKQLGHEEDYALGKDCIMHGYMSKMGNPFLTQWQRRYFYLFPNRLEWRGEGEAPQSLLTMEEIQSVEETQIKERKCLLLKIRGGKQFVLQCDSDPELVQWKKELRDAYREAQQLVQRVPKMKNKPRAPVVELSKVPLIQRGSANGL

bovine GRK5 = target: T3, bovine GRK5 (Bos taurus, UniProt P43249); experiment: Primary DSF inhibitor screen, GRK5; assay type: binding; conditions: 10 μM compound; for ΔTm, primary screen, GRK5 / ΔTm at 10 µM: 2 μM kinase, relative to DMSO control; for ΔTm at 10 µM: read-out: ΔTm, primary screen, GRK5; for rank in the primary screen, GRK5: rank ordering of compounds in primary DSF screen
T3 construct: when using full-length kinases as the receptor[37] instead of isolated kinase domains; made in house
T3 sequence (P43249 whole entry, the tested form may be a part): as the sequence (P43249 whole entry, the tested form may be a part) above

PKA = target: T4, PKA (Mus musculus, UniProt P05132); experiment: PKA inhibition assay (ADP-Glo, CREBtide, 100 μM ATP); assay type: biochemical; conditions: logarithm of IC50 (−3.3 corresponds to 0.5 mM, footnote c); 438 nM PKA, 100 μM ATP, CREBtide; read-out: PKA log IC50 (converted)
T4 construct: His tag (inferred from pET15b vector and Ni-NTA column) (N); host or cells: E. coli Rosetta(DE3)pLysS

protein kinase A (PKA) = target: T5, protein kinase A (PKA) (Mus musculus, UniProt P05132); experiment: DSF retest (confirmation), PKA; assay type: binding; conditions: for PKA Tm: 0.2 mg mL^–1 kinase; for PKA ΔTm: relative to intrinsic melting point of the kinase
T5 construct: His tag (inferred from pET15b vector and Ni-NTA column) (N); host or cells: E. coli Rosetta(DE3)pLysS
Description: Fourteen compounds (Figure 1a–c), including all GRK2 hits except staurosporine, and the most stabilizing pyrrolopyrimidine-containing compounds were obtained from GSK and retested using DSF on GRKs representing each vertebrate subfamily (GRK1, 2, and 5) (Table 1). […] The ability of these compounds to shift the Tm of the related AGC family kinase member protein kinase A (PKA) was also assessed (Table 1). In no case was ΔTm greater for PKA than for one of the tested GRKs. […]. There was no correlation for GRK1 (Figure 2c).
DSF was conducted using a ThermoFluor plate reader (Johnson & Johnson) in a buffer containing 20 mM HEPES, pH 7.0, 5 mM MgCl2, 2 mM DTT, and 1 mM CHAPS with 0.2 mg mL^–1 final concentration of GRK or PKA and 100 μM 1-anilinonaphthalene-8-sulfonic acid.[14]

GRK5 [3] = target: T1, GRK5; experiment: DSF retest (confirmation), GRK5; assay type: binding, bovine; conditions: for GRK5 Tm: 0.2 mg mL^–1 kinase; for GRK5 ΔTm: relative to intrinsic melting point of the kinase
GRK2 [4] = target: T6, GRK2 (Homo sapiens, UniProt P25098, S670A); experiment: DSF retest (confirmation), GRK2; assay type: binding
T6 construct: made in house
T6 sequence (P25098 1-689 S670A): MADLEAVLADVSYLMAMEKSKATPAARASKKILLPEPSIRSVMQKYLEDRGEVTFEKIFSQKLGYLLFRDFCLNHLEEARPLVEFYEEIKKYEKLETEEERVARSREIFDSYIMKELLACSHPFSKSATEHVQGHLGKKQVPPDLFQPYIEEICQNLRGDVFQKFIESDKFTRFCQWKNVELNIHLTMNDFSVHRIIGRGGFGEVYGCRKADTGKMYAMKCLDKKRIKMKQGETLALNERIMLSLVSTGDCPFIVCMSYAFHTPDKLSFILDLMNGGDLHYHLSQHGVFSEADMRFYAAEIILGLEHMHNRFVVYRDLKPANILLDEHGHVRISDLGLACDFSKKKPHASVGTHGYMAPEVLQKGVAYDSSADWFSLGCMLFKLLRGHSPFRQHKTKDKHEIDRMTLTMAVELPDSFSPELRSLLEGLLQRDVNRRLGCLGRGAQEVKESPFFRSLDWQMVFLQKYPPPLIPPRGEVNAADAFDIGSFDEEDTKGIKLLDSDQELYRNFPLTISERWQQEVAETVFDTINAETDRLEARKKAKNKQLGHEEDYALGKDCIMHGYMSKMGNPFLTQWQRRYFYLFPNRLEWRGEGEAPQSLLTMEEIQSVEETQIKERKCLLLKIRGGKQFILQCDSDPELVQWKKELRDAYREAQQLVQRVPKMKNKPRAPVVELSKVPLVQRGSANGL

GRK1 [5] = target: T7, GRK1 (Bos taurus, UniProt P28327); experiment: DSF retest (confirmation), GRK1; assay type: binding, bovine; conditions: for GRK1 Tm: 0.2 mg mL^–1 kinase; for GRK1 ΔTm: relative to intrinsic melting point of the kinase
T7 construct: Bovine GRK1_1–535, bovine and human GRK2S670A; made in house
T7 sequence (P28327 1-535): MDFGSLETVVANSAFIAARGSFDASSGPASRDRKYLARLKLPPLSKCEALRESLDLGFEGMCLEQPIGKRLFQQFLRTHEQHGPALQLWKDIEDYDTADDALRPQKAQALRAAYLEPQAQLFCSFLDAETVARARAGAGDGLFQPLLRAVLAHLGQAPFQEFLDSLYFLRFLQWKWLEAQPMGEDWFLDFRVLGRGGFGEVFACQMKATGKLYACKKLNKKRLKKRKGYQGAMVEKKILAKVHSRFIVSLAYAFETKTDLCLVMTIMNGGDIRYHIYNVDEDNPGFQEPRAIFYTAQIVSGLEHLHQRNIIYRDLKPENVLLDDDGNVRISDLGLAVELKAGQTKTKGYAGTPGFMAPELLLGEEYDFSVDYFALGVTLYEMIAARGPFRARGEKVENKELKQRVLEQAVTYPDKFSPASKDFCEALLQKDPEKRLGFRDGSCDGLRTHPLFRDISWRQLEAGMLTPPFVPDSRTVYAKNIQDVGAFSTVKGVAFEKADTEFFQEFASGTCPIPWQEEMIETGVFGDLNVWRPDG

GRK1, 2, and 5 and PKA = experiment: Ssel selectivity score calculated from inhibition of GRK1, 2, 5 and PKA
GRK1 [6] = target: T7, GRK1; experiment: In vitro phosphorylation assay (tubulin, 5 μM ATP), GRK1; assay type: biochemical, bovine; conditions: read-out: GRK1 log IC50 (converted)
human GRK2S670A = target: T8, human GRK2S670A (Homo sapiens, UniProt P25098, S670A); experiment: Primary DSF (differential scanning fluorimetry) inhibitor screen, GRK2; assay type: binding
T8 construct: when using full-length kinases as the receptor[37] instead of isolated kinase domains; made in house
T8 sequence (P25098 1-689 S670A): T6 sequence (P25098 1-689 S670A)

[7] = selectivity score from inhibition of GRK1, 2, 5 and PKA, <0.5 selective

Compound: CCCN1CCC(Oc2cc(Nc3nc(Nc4cccc(F)c4C(N)=O)c4cc[nH]c4n3)c(OC)cc2Cl)CC1 [GSK1713088A]
IC50 (GRK5 [1]): 3.16 µM | IC50 (GRK2 [2]): 6.31 µM | ΔTm, primary screen, GRK5 (bovine GRK5): 7.4 °C | ΔTm at 10 µM (bovine GRK5): 7.37 °C | rank in the primary screen, GRK5 (bovine GRK5): 11 | IC50 (PKA): > 501 µM | PKA Tm (protein kinase A (PKA)): 45.8 °C | PKA ΔTm (protein kinase A (PKA)): 0.4 °C | GRK5 Tm (GRK5 [3]): 40.3 °C | GRK5 ΔTm (GRK5 [3]): 13.6 °C | GRK2 Tm (GRK2 [4]; 0.2 mg mL^–1 kinase): 44.2 °C | GRK2 ΔTm (GRK2 [4]; relative to intrinsic melting point of the kinase): 6.7 °C

Compound: CC1=C(C(=O)Nc2ccc3[nH]ncc3c2)C(c2ccc(F)cc2)NC(=O)N1 (stereo not shown) [GSK180736A]
GRK1 Tm (GRK1 [5]): 25.3 °C | GRK1 ΔTm (GRK1 [5]): 5.4 °C | PKA Tm (protein kinase A (PKA)): 49.2 °C | PKA ΔTm (protein kinase A (PKA)): 3.8 °C | Ssel (GRK1, 2, and 5 and PKA; [7]): 0.022 | IC50 (GRK1 [6]): > 1000 µM

Compound: CCc1nn2ncccc2c1-c1ccnc(NC2CC2)n1 [GW683768X]
ΔTm at 10 µM (bovine GRK5): 2.22 °C

Compound: COc1cc(N2CCN(C(C)C)CC2)ccc1Nc1nc(Nc2ccc(F)cc2C(N)=O)c2cc[nH]c2n1 [GSK1220512A]
ΔTm at 10 µM (bovine GRK5): 3.05 °C

Compound: O=c1c(-c2ccc(O)cc2)coc2cc(O)cc(O)c12 [Genistein, 4',5,7-Trihydroxyisoflavone]
ΔTm at 10 µM (bovine GRK5): 2.46 °C

Compound: CCCN1CCCC(c2ccc(Nc3nc(Nc4cc(F)ccc4C(N)=O)c4cc[nH]c4n3)c(OC)c2)C1 (stereo not shown) [GSK1173862A]
ΔTm at 10 µM (bovine GRK5): 4.75 °C

Compound: COC(=O)Nc1nc2ccc(Oc3ccc(NC(=O)Nc4cccc(C(=O)O)c4)cc3)cc2[nH]1 [GW701427A]
ΔTm at 10 µM (bovine GRK5): 3.25 °C

Compound: CN[C@@H]1C[C@H]2O[C@@](C)([C@@H]1OC)n1c3ccccc3c3c4c(c5c6ccccc6n2c5c31)C(=O)NC4 [Staurosporine]
ΔTm, primary screen, GRK5 (bovine GRK5): 12 °C | ΔTm at 10 µM (bovine GRK5): 11.9 °C | ΔTm, primary screen, GRK2 (human GRK2S670A; 10 μM compound, 2 μM kinase, relative to DMSO control): 5.4 °C | ΔTm at 10 µM (human GRK2S670A; read-out: ΔTm, primary screen, GRK2, 10 μM compound, 2 μM kinase, relative to DMSO control): 5.37 °C

Compound: Nc1ncnc2occ(-c3ccc(NC(=O)Nc4cccc(C(F)(F)F)c4)cc3)c12 [GW795493X]
ΔTm at 10 µM (bovine GRK5): 4.96 °C

Compound: O=C1NC(=O)C(c2c[nH]c3ccccc23)=C1c1c[nH]c2ccccc12 [BIM 4, bisindolylmaleimide IV]
ΔTm, primary screen, GRK5 (bovine GRK5): 3.11 °C

Compound: Nc1ncnc2c1c(I)cn2[C@@H]1O[C@H](CO)[C@@H](O)[C@H]1O [5-Iodotubercidin, 4-Amino-5-iodo-7-(b-D-ribofuranosyl)pyrrolo[2,3-d]pyrimidine]
ΔTm, primary screen, GRK5 (bovine GRK5): 2.22 °C

Compound: Fc1ccc([C@@H]2CCNC[C@H]2COc2ccc3c(c2)OCO3)cc1 [paroxetine]
IC50 (PKA): > 501 µM | PKA Tm (protein kinase A (PKA)): 50.1 °C | PKA ΔTm (protein kinase A (PKA)): 4.7 °C | Ssel (GRK1, 2, and 5 and PKA): 0.085

Second part, led by results:

ΔTm, primary screen, GRK5 (bovine GRK5): 9.2 °C | ΔTm at 10 µM (bovine GRK5): 9.25 °C | rank in the primary screen, GRK5 (bovine GRK5): 4 | IC50 (PKA): > 501 µM | GRK1 Tm (GRK1 [5]): 26.3 °C | GRK1 ΔTm (GRK1 [5]): 6.4 °C | PKA Tm (protein kinase A (PKA)): 48.5 °C | PKA ΔTm (protein kinase A (PKA)): 3.1 °C | GRK5 Tm (GRK5 [3]): 33.0 °C | GRK5 ΔTm (GRK5 [3]): 6.3 °C | IC50 (GRK1 [6]): 0.126 µM
Compound: COc1cc2c(cc1Nc1nc(Nc3ccsc3C(N)=O)c3cc[nH]c3n1)N(C(=O)CN(C)C)CCC2(C)C [GSK2163632A]
Ssel (GRK1, 2, and 5 and PKA; [7]): 0.199

ΔTm at 10 µM (bovine GRK5): 3.72 °C
Compound: NS(=O)(=O)c1ccc(NN=C2C(=O)Nc3ccc(C(=O)NCCCn4ccnc4)cc32)cc1 [GW290597X]

ΔTm at 10 µM (bovine GRK5): 2.32 °C
Compound: O=C(Nc1ccc(Oc2ccc3nc(NC(=O)c4ccco4)[nH]c3c2)cc1)Nc1cc(C(F)(F)F)ccc1F [GW683134A]

ΔTm at 10 µM (bovine GRK5): 6.44 °C
Compound: CC(C)[C@H](CO)Nc1nc(Nc2cccc(Cl)c2)c2ncn(C(C)C)c2n1 [Purvalanol A, 2-(1R-Isopropyl-2-hydroxyethylamino)-6-(3-chloroanilino)-9-isopropyl-purine]

ΔTm, primary screen, GRK5 (bovine GRK5): 2.57 °C
Compound: NC(=O)Nc1sc(-c2ccccc2)cc1C(N)=O [IKK-2 Inhibitor VI]

ΔTm at 10 µM (bovine GRK5): 4.33 °C
Compound: Nc1nccc(C#Cc2cncnc2Nc2ccc(OCc3cccc(F)c3)c(Cl)c2)n1 [GW799251X]

ΔTm, primary screen, GRK5 (bovine GRK5): 2.19 °C
Compound: O=C1c2ccccc2-c2n[nH]c3cccc1c23 [JNK Inhibitor II, Anthra[1,9-cd]pyrazol-6(2H)-one]

ΔTm at 10 µM (bovine GRK5): 2.68 °C
Compound: NC(=O)c1cccc(Nc2nccc(Nc3cccc(F)c3)n2)c1 [GW759710A]

ΔTm, primary screen, GRK5 (bovine GRK5): 4.89 °C
Compound: Wee1/Chk1 inhibitor

ΔTm at 10 µM (bovine GRK5): 4.43 °C
Compound: NC(=O)c1sc(-n2cnc3ccc(C(F)(F)F)cc32)cc1OCc1ccccc1Br [GW853606X]
